Test results reported in ChEMBL document CHEMBL4052641 (Eur J Med Chem, 2017).
pIC50, pKi: −log10 of the molar value.

Experiments:
[1] = Inhibition of butter milk xanthine oxidase (unknown origin) assessed as reduction in uric acid formation using xanthine as substrate by spectrophotometric assay
[2] = Potency index, ratio of quercetin IC50 to compound IC50 for butter milk xanthine oxidase (unknown origin)
[3] = target: T1, Xanthine dehydrogenase/oxidase (Bos taurus, UniProt P80457); test: Inhibition of bovine milk xanthine oxidase assessed as reduction in uric acid formation using xanthine as substrate preincubated for 5 mins followed by substrate addition by UV-Vis spectrophotometric assay
T1 sequence (P80457 whole entry): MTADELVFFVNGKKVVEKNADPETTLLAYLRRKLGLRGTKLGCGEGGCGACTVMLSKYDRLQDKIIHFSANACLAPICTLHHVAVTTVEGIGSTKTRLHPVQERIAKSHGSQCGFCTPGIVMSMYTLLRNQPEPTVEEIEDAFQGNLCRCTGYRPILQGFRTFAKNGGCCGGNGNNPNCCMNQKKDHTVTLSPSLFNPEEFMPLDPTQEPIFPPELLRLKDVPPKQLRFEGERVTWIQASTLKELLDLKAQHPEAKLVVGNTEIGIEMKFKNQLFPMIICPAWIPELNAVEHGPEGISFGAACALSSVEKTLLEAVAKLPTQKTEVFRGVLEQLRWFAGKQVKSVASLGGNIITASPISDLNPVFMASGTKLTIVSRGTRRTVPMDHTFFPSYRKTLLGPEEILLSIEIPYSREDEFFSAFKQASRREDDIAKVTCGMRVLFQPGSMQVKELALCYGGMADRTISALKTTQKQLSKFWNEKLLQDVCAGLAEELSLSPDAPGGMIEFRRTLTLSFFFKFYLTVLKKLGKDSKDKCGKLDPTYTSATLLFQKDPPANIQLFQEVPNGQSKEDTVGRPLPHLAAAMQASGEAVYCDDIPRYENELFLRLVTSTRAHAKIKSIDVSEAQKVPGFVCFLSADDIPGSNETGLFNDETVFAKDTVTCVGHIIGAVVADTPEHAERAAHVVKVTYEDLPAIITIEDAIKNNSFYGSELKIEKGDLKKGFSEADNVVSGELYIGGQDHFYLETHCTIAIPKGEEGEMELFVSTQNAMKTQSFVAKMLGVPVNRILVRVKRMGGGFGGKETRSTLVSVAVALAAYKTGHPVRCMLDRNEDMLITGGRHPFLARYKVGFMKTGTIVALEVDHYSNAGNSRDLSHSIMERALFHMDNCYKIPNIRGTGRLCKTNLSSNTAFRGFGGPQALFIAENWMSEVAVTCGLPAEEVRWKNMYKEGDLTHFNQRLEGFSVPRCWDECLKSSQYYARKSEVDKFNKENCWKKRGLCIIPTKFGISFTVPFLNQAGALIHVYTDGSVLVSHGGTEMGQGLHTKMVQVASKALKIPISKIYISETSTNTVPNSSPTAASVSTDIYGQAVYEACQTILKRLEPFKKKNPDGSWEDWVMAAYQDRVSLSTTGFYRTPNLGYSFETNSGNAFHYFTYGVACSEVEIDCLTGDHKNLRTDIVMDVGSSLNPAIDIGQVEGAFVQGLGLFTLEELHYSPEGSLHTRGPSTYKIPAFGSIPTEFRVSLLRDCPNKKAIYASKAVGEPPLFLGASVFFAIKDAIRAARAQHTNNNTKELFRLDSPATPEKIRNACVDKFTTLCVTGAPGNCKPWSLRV

[4] = target: T1, Xanthine dehydrogenase/oxidase; test: Potency index, ratio of allopurinol IC50 to compound IC50 for bovine milk xanthine oxidase; settings: cattle
[5] = Potency index, ratio of allopurinol IC50 to compound IC50 for butter milk xanthine oxidase (unknown origin)
[6] = Inhibition of butter milk xanthine oxidase (unknown origin) assessed as reduction in uric acid formation using xanthine as substrate by UV-Vis spectrophotometric assay
[7] = target: T1, Xanthine dehydrogenase/oxidase; test: Competitive inhibition of bovine milk xanthine oxidoreductase assessed as reduction in uric acid formation by spectrophotometric assay
[8] = target: T2, Xanthine dehydrogenase/oxidase (Homo sapiens, UniProt P47989); test: Inhibition of xanthine oxidase (unknown origin) using xanthine as substrate measured at every 1 mins up to 5 mins
T2 sequence (P47989 whole entry): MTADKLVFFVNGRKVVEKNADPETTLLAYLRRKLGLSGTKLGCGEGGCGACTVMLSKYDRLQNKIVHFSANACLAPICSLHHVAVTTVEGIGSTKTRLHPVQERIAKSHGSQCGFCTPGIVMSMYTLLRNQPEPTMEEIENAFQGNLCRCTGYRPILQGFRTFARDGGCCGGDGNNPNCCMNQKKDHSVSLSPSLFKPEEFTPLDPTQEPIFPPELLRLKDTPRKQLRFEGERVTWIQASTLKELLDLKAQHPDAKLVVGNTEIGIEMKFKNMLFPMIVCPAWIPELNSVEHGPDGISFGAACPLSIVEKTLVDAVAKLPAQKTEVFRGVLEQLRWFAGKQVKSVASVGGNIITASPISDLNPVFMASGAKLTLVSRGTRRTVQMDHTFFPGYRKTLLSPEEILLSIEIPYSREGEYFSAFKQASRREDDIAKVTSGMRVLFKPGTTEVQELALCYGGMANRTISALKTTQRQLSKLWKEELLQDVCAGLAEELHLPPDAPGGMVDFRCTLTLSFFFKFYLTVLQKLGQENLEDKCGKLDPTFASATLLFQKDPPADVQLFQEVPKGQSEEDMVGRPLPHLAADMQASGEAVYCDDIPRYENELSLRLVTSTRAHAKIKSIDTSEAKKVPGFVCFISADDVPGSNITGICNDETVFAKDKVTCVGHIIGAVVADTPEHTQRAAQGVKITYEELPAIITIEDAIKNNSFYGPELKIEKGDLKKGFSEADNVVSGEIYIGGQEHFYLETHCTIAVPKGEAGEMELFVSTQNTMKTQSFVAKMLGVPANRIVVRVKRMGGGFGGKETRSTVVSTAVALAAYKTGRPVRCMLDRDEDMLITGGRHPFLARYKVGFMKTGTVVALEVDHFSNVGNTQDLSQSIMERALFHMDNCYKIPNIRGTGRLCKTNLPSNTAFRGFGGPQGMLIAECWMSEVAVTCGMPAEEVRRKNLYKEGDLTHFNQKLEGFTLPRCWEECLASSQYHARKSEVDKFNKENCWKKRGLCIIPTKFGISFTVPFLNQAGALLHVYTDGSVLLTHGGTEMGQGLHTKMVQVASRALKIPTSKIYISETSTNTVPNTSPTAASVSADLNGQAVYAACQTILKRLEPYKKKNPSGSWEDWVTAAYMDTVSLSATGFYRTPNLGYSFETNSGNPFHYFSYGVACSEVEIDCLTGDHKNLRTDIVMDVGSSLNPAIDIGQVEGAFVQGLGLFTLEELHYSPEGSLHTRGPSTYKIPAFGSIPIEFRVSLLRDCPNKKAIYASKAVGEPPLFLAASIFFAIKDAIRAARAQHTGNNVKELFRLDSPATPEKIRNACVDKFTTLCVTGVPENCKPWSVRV

[9] = target: T2, Xanthine dehydrogenase/oxidase; test: Potency index, ratio of allopurinol IC50 to compound IC50 for xanthine oxidase (unknown origin)
[10] = target: T2, Xanthine dehydrogenase/oxidase; test: Inhibition of xanthine oxidase (unknown origin) assessed as reduction in uric acid formation using xanthine as substrate after 10 mins
[11] = target: T1, Xanthine dehydrogenase/oxidase; test: Inhibition of bovine milk xanthine oxidase assessed as reduction in uric acid formation using xanthine as substrate preincubated for 3 hrs followed by substrate addition by UV-Vis spectrophotometric assay
[12] = target: T2, Xanthine dehydrogenase/oxidase; test: Inhibition of xanthine oxidase (unknown origin) assessed as reduction in uric acid formation using xanthine as substrate after 30 mins by UV-Vis spectrophotometric assay
[13] = target: T2, Xanthine dehydrogenase/oxidase; test: Non-competitive inhibition of human xanthine oxidase
[14] = target: T1, Xanthine dehydrogenase/oxidase; test: Inhibition of bovine milk xanthine oxidase assessed as reduction in uric acid formation using xanthine as substrate preincubated for 3 hrs followed by substrate addition measured after 1 min by UV spectrophotometric assay
[15] = target: T1, Xanthine dehydrogenase/oxidase; test: Inhibition of bovine milk xanthine oxidase assessed using xanthine as substrate after 10 mins by fluorometric assay
[16] = Inhibition of butter milk xanthine oxidase (unknown origin) assessed as reduction in uric acid formation using xanthine as substrate by double beam spectrophotometric assay
[17] = target: T1, Xanthine dehydrogenase/oxidase; test: Potency index, ratio of apigenin IC50 to compound IC50 for bovine milk xanthine oxidase; settings: cattle
[18] = target: T2, Xanthine dehydrogenase/oxidase; test: Inhibition of xanthine oxidase (unknown origin) assessed as reduction in uric acid formation using xanthine as substrate after 4 mins by UV-Vis spectrophotometric assay

O=C(/C=C/c1ccc2c(c1)O[C@@H](c1ccc(O)c(O)c1)[C@@H](C(=O)O)O2)O/C=C\c1ccc(O)c(O)c1 showed a pIC50 [1] of 4.55 to 5.28 and a Ratio IC50 [2] of 1.02.
For Oc1nc(-c2ccccc2)cc(-c2ccccc2)n1, the pIC50 [3] was 4.99 and the “Ratio IC50” value [4] was 1.2.
CCCCCCSc1nc2c(=O)[nH]c(O)nc2[nH]1 gave a Ratio IC50 [5] of 6.36 and a pIC50 [6] of 6.18.
With N#Cc1cc(-c2n[nH]c(-c3ccncc3)n2)ccn1 [TOPIROXOSTAT] the pKi [7] was 8.24.
CC(C)(C)c1ccc(-c2cc(=O)c3c(O)cc(O)cc3o2)cc1 showed a pIC50 [1] of 7.04 and a Ratio IC50 [2] of 4.22.
With CC(C)=CCc1cc(C(=O)/C=C/c2ccc(O)c(O)c2)c(O)cc1O [BROUSSOCHALCONE A] the pIC50 [8] was 6.22 and the “Ratio IC50” value [9] was 3.33.
For O=C1CC(c2ccc(O)c(-c3c(O)cc(O)c4c3OC(c3ccc(O)cc3)CC4=O)c2)Oc2cc(O)cc(O)c21 (stereo not drawn), the pIC50 [10] was 7.04 and the “Ratio IC50” value [9] was 1.09.
For CCCCCCSc1nc2c(=O)[nH]cnc2[nH]1, the Ratio IC50 [5] was 7.5 and the pIC50 [6] was 6.25.
Oc1ncnc2[nH]ncc12 [ALLOPURINOL] showed a pIC50 [1] of 5.28.
In the case of O=c1nc(-c2ccncc2)cc(-c2cccs2)[nH]1, the pIC50 [3] was 5.19 and the “Ratio IC50” value [4] was 1.9.
CCCOCCSc1nc2[nH]cnc2c(=O)[nH]1 gave a Ratio IC50 [5] of 6.27 and a pIC50 [6] of 6.17.
O=c1cc(-c2ccc(-c3ccccc3)cc2)oc2cc(O)ccc12 gave a pIC50 [1] of 6.46 and a Ratio IC50 [2] of 1.1 to 1.74.
Work on COc1ccc(-c2cc(=O)c3c(O)cc(O)cc3o2)cc1 [ACACETIN] yielded a pIC50 [1] of 6.66 and a Ratio IC50 [2] of 1.74.
In the case of O=c1nc(-c2ccncc2)cc(-c2cccc3ccccc23)[nH]1, the pIC50 [3] was 4.95 and the “Ratio IC50” value [4] was 1.09.
In the case of C=CCc1cc(O)c(O)cc1C(C=C)c1ccc(O)c(O)c1 (stereo not drawn), the pIC50 [8] was 6.55 and the “Ratio IC50” value [9] was 25.21.
Molecule CCCCSc1nc(O)c2[nH]cnc2n1 has a Ratio IC50 [5] of 1.08 and a pIC50 [6] of 5.41.
In the case of CC1(C)C=Cc2cc(C(=O)/C=C/c3ccc(O)c(O)c3)c(O)cc2O1, the pIC50 [8] was 5.74 and the “Ratio IC50” value [9] was 1.11.
Work on O=c1cc(-c2ccc(O)cc2)oc2cc(O)cc(O)c12 [APIGENIN] yielded a pIC50 [11] of 5.45.
With O=[N+]([O-])c1cccc(C2Nc3ccccc3-c3cc(-c4ccccc4)nn32)c1 (stereo not drawn) the pIC50 [12] was 4.68 and the “Ratio IC50” value [9] was 1.51.
For O=c1nc(-c2ccncc2)cc(-c2ccco2)[nH]1, the pIC50 [3] was 5.14 and the “Ratio IC50” value [4] was 1.69.
In the case of CCCCCCOC(=O)C(=O)Nc1[nH]cnc1C(N)=O, the Ratio IC50 [5] was 3.78 and the pIC50 [6] was 5.95.
With Oc1c(Cl)cc(Cl)cc1C1Nc2ccccc2-c2cc(-c3ccccc3)nn21 (stereo not drawn) the pIC50 [12] was 4.96 and the “Ratio IC50” value [9] was 2.89.
Work on Cc1nc(-c2ccc(OCC(C)C)c(C#N)c2)sc1C(=O)O [FEBUXOSTAT] yielded a pKi [13] of 10.00.
In the case of O=c1c(-c2ccc(O)cc2)coc2cc(O)cc(O)c12 [GENISTEIN], the pIC50 [14] was 5.76 and the “Ratio IC50” value [4] was 2.04.
For O=c1cc(-c2cccnc2)[nH]c2ccccc12, the pIC50 [3] was 5.20 and the “Ratio IC50” value [4] was 1.33.
In the case of O=c1cc(-c2ccc(O)c(O)c2)oc2cc(O)cc(O)c12 [LUTEOLIN], the pIC50 [15] was 4.99 and the “Ratio IC50” value [4] was 25.32.
In the case of O=c1c(O)c(-c2ccc(O)c(O)c2)oc2cc(O)cc(O)c12 [QUERCETIN], the pIC50 [16] was 6.40 and the pIC50 [1] was 6.42.
CCCCCOC(=O)C(=O)Nc1[nH]cnc1C(N)=O showed a Ratio IC50 [5] of 2.19 and a pIC50 [6] of 5.72.
With O=c1cc(-c2ccccc2)oc2cc(O)cc(O)c12 [CHRYSIN] the “Ratio IC50” value [17] was 2.83, the pIC50 [11] was 5.90 and the “Ratio IC50” value [4] was 2.33.
Work on CCOCCCSc1nc2[nH]cnc2c(=O)[nH]1 yielded a Ratio IC50 [5] of 72.4 and a pIC50 [6] of 7.24.
For O=c1cc(-c2ccccc2)oc2cc(O)c(O)c(O)c12 [BAICALEIN], the pIC50 [15] was 4.15 and the “Ratio IC50” value [4] was 3.61.
Molecule O=C(/C=C/c1ccc2c(c1)O[C@H](c1ccc(O)c(O)c1)[C@@H](C(=O)O)O2)O/C=C\c1ccc(O)c(O)c1 has a pIC50 [1] of 5.37 to 5.70 and a Ratio IC50 [2] of 2.65.
With C=CCc1ccc(O)c(O)c1 [HYDROXYCHAVICOL] the pIC50 [18] was 4.78 and the “Ratio IC50” value [9] was 1.84.
In the case of O=C(/C=C/c1ccc2c(c1)O[C@H](C(=O)O)[C@H](c1ccc(O)c(O)c1)O2)O/C=C\c1ccc(O)c(O)c1, the pIC50 [1] was 5.96 to 6.22 and the Ratio IC50 [2] was 8.83.
O=c1cc(-c2ccc(-c3ccccc3)cc2)oc2cc(O)cc(O)c12 showed a pIC50 [1] of 7.87 and a Ratio IC50 [2] of 28.2.
COCCCCSc1nc2[nH]cnc2c(=O)[nH]1 showed a Ratio IC50 [5] of 150 and a pIC50 [6] of 7.55.
In the case of O=c1oc2c(O)ccc(-c3oc4cc(O)cc(O)c4c(=O)c3O)c2s1, the pIC50 [16] was 7.30 and the Ratio IC50 [2] was 8.
In the case of O=c1nc(-c2ccc(Cl)cc2)cc(-c2ccc(Cl)cc2)[nH]1, the pIC50 [3] was 4.92 and the “Ratio IC50” value [4] was 1.02.
